Assay results reported in ChEMBL document CHEMBL3045522, “Responses of dry beans (Phaseolus vulgaris L.) to sulfentrazone” (Crop Prot, 2007).

Legend:
Type in all cases: organism-based
[1] = tested on: Phaseolus vulgaris; test: Phytotoxicity against Phaseolus vulgaris (Cranberry dry bean) assessed as visual crop injury applied pre-emergence relative to control; conditions: in vivo
[2] = tested on: Phaseolus vulgaris; test: Phytotoxicity against Phaseolus vulgaris (White dry bean) assessed as visual crop injury applied pre-emergence relative to control; conditions: in vivo
[3] = tested on: Phaseolus vulgaris; test: Phytotoxicity against Phaseolus vulgaris (Black dry bean) assessed as reduction in plant height applied pre-emergence relative to control; set-up: scale not given: the % may be the effect or the level left; conditions: in vivo
[4] = tested on: Phaseolus vulgaris; test: Phytotoxicity against Phaseolus vulgaris (White dry bean) assessed as reduction in plant height applied pre-emergence relative to control; set-up: scale not given: the % may be the effect or the level left; conditions: in vivo
[5] = tested on: Phaseolus vulgaris; test: Phytotoxicity against Phaseolus vulgaris (Kidney) dry bean assessed as visual crop injury relative to control; conditions: in vivo
[6] = tested on: Phaseolus vulgaris; test: Phytotoxicity against Phaseolus vulgaris (White dry bean) assessed as visual crop injury relative to control; conditions: in vivo
[7] = tested on: Phaseolus vulgaris; test: Phytotoxicity against Phaseolus vulgaris (Pinto dry bean) assessed as reduction in plant height applied pre-emergence relative to control; set-up: scale not given: the % may be the effect or the level left; conditions: in vivo
[8] = tested on: Phaseolus vulgaris; test: Phytotoxicity against Phaseolus vulgaris (Pinto dry bean) assessed as reduction in shoot dry weight applied pre-emergence relative to control; set-up: scale not given: the % may be the effect or the level left; conditions: in vivo
[9] = tested on: Phaseolus vulgaris; test: Phytotoxicity against Phaseolus vulgaris (Black dry bean) assessed as reduction in shoot dry weight applied pre-emergence relative to control; set-up: scale not given: the % may be the effect or the level left; conditions: in vivo
[10] = tested on: Phaseolus vulgaris; test: Phytotoxicity against Phaseolus vulgaris (Otebo dry bean) assessed as reduction in plant height applied pre-emergence relative to control; set-up: scale not given: the % may be the effect or the level left; conditions: in vivo
[11] = tested on: Phaseolus vulgaris; test: Phytotoxicity against Phaseolus vulgaris (Yellow eye dry bean) assessed as reduction in shoot dry weight applied pre-emergence relative to control; set-up: scale not given: the % may be the effect or the level left; conditions: in vivo
[12] = tested on: Phaseolus vulgaris; test: Phytotoxicity against Phaseolus vulgaris (White dry bean) assessed as reduction in shoot dry weight applied pre-emergence relative to control; set-up: scale not given: the % may be the effect or the level left; conditions: in vivo
[13] = tested on: Phaseolus vulgaris; test: Phytotoxicity against Phaseolus vulgaris (Otebo dry bean) assessed as reduction in shoot dry weight applied pre-emergence relative to control; set-up: scale not given: the % may be the effect or the level left; conditions: in vivo
[14] = tested on: Phaseolus vulgaris; test: Phytotoxicity against Phaseolus vulgaris (Yellow eye dry bean) assessed as reduction in plant height applied pre-emergence relative to control; set-up: scale not given: the % may be the effect or the level left; conditions: in vivo
[15] = tested on: Phaseolus vulgaris; test: Phytotoxicity against Phaseolus vulgaris (Kidney dry bean) assessed as visual crop injury applied […] relative to control; conditions: in vivo
[16] = tested on: Phaseolus vulgaris; test: Phytotoxicity against Phaseolus vulgaris (White dry bean) assessed as visual crop injury applied post-emergence relative to control; conditions: in vivo, other
[17] = tested on: Phaseolus vulgaris; test: Phytotoxicity against Phaseolus vulgaris (Pink dry bean) assessed as visual crop injury applied post-emergence relative to control; conditions: in vivo

Row | Structure (SMILES) | Activity [1] [%] | Activity [2] [%] | Activity [3] [%] | Activity [4] [%] | Activity [9] [%] | Activity [15] [%] | other results
1 | C#CCN1C(=O)COc2cc(F)c(N3C(=O)C4=C(CCCC4)C3=O)cc21 [FLUMIOXAZIN] | 4 | 17 | 23 | 28 |  |  | 
2 | CCc1cccc(CC)c1N(COC)C(=O)CCl [ALACHLOR] |  |  |  |  |  |  | Activity [5]: 0.5%; Activity [6]: 5.6%
3 | CON(C)C(=O)Nc1ccc(Cl)c(Cl)c1 [LINURON] | 4 | 49 | 24 | 24 | 26 |  | Activity [7]: 24%; Activity [8]: 26%; Activity [10]: 24%; Activity [11]: 26%; Activity [12]: 26%; Activity [13]: 26%; Activity [14]: 24%
4 | CCc1cccc(C)c1N(C(=O)CCl)[C@@H](C)COC [S-METOLACHLOR] |  |  |  |  | 16 |  | 
5 | CCc1cnc(C2=NC(C)(C(C)C)C(=O)N2)c(C(=O)O)c1 (stereo not given) [IMAZETHAPYR] |  |  | 40 | 40 |  | 1.8 | Activity [16]: 11%
6 | CS(=O)(=O)NC(=O)c1cc(Oc2ccc(C(F)(F)F)cc2Cl)ccc1[N+](=O)[O-] [FOMESAFEN] |  |  |  |  |  | 1.4 | Activity [17]: 5%
